Numbered stars: 1 amine (or outer) side, 2 acyl side, 3 side chain; on linkers, the order of the positions; unused ones are H or OH. Square brackets hold non-standard residues; d marks the D form. Peptide text beside a SMILES is read from it. * marks the point of attachment. X4 = NCCCN[C@@H]1C[C@@H](C(=O)[*:2])N([*:1])C1; X3 = NCCN[C@@H]1C[C@@H](C(=O)[*:2])N([*:1])C1; Phe(4-Me) = Cc1ccc(C[C@H](N)C(=O)O)cc1; Pro(4R-NH2) = N[C@H]1CN[C@H](C(=O)O)C1; X9 = CN(C)CC[C@@H](N[*:1])C(=O)[*:2]; Gly(cPent) = N[C@H](C(=O)O)C1CCCC1; X11 = O=C(C(CCN1CCCC1)N[*:1])[*:2]; X2 = O=C([C@H]1CCCN([*:1])C1)[*:2]; Hyp = O=C(O)[C@@H]1C[C@@H](O)CN1; NHcycloheptyl = C1CCCC(N*)CC1; NMeL = CN[C@@H](CC(C)C)C(=O)O; Octanoyl = CCCCCCCC(=O)*
Target: T1, NPR-B (Homo sapiens, UniProt P20594)
T1 construct: a functional assay using endogenously NPR-B expressing GTM-3 cells; endogenous in cells; host or cells: GTM-3 (human glaucoma trabecular meshwork cells)
T1 sequence (P20594 23-1047): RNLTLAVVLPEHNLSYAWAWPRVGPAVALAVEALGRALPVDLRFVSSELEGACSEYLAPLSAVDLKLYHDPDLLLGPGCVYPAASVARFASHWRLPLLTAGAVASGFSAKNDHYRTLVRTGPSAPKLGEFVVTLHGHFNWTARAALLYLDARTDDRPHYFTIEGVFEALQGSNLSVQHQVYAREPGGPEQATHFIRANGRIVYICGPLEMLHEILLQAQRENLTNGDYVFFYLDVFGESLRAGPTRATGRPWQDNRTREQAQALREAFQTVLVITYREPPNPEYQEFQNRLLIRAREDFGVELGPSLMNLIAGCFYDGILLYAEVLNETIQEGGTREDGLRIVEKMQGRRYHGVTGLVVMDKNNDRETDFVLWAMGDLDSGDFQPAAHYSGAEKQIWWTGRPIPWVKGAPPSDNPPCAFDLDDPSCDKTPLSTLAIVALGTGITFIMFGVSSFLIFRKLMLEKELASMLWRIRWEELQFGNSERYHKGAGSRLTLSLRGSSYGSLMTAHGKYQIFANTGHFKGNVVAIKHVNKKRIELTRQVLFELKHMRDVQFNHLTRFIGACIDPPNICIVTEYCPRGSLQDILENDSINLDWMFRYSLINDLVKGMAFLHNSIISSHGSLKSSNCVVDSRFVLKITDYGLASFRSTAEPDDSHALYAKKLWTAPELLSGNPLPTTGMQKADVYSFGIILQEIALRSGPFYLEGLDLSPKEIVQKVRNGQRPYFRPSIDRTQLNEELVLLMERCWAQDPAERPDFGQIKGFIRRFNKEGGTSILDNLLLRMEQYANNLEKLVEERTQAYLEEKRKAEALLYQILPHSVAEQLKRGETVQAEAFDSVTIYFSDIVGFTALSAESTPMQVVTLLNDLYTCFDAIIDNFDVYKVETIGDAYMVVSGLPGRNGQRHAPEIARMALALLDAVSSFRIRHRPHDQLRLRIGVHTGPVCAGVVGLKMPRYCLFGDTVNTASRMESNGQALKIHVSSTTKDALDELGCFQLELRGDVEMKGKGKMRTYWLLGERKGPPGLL
Test: NPR-B induced production of cyclic GMP in human glaucoma trabecular meshwork cells (GTM-3)
Type: cell-based
Conditions: group by EC50 and Emax (CNP = 100%); Table 4; read-out: Activity (group), NPR-B activation assayed with GTM-3 cells

SMILES | EC50 [µM]
CCCCCCCC(=O)N1CCC[C@H](C(=O)N[C@@H](Cc2ccc(C)cc2)C(=O)N[C@H](CC(C)C)C(=O)N[C@@H](CC(C)C)C(=O)N2C[C@H](O)C[C@H]2C(=O)N(C)[C@@H](CC(C)C)C(=O)N[C@@H](CC(=O)O)C(=O)N[C@@H](CCCNC(=N)N)C(=O)N[C@H](C(N)=O)[C@@H](C)CC)C1 [JAL-1494, Occ-Sni-Pmf-leu-Leu-Hyp-Nml-Asp-Arg-Ile-NH2] (Octanoyl-[X2][Phe(4-Me)][dL]L[Hyp][NMeL]DRI-NH2) | < 1
CCCCCCCC(=O)N1CCC[C@H](C(=O)N[C@@H](Cc2ccccc2)C(=O)N[C@H](CC(C)C)C(=O)N[C@@H](CC(C)C)C(=O)N2C[C@H](NCCCN)C[C@H]2C(=O)N(C)[C@@H](CC(C)C)C(=O)N[C@@H](CC(=O)O)C(=O)N[C@@H](CCCNC(=N)N)C(=O)N[C@H](C(N)=O)[C@@H](C)CC)C1 [JAL-1372, Occ-Sni-Phe-leu-Leu-Tap(Ap)-Nml-Asp-Arg-Ile-NH2] (Octanoyl-[X2]F[dL]L[X4][NMeL]DRI-NH2) | < 1
CCCCCCCC(=O)N1CCCC[C@@H]1C(=O)N[C@@H](Cc1ccccc1)C(=O)N[C@H](CC(C)C)C(=O)N[C@@H](CC(C)C)C(=O)N1C[C@H](O)C[C@H]1C(=O)N[C@@H](CC(C)C)C(=O)N[C@@H](CC(=O)O)C(=O)N[C@@H](CCCNC(=N)N)C(=O)N[C@H](C(N)=O)[C@@H](C)CC [JAL-1054, Occ-pip-Phe-leu-Leu-Hyp-Leu-Asp-Arg-Ile-NH2] (HELM PEPTIDE1{[CCCCCCCC(=O)[*:2]].[O=C([C@H]1CCCCN1[*:1])[*:2]].F.[dL].L.[Hyp].L.D.R.I.[am]}$$$$V2.0) | < 1
CCCCCCCC(=O)N1CCCC[C@@H]1C(=O)N[C@@H](Cc1ccccc1)C(=O)N[C@H](CCCNC(=N)N)C(=O)N[C@@H](CC(C)C)C(=O)N1CCC[C@H]1C(=O)N(C)[C@@H](CC(C)C)C(=O)N[C@@H](CC(=O)O)C(=O)N[C@@H](CCCNC(=N)N)C(=O)N[C@H](C(N)=O)[C@@H](C)CC [JAL-1078, Occ-pip-Phe-arg-Leu-Pro-Nml-Asp-Arg-Ile-NH2] (HELM PEPTIDE1{[CCCCCCCC(=O)[*:2]].[O=C([C@H]1CCCCN1[*:1])[*:2]].F.[dR].L.P.[meL].D.R.I.[am]}$$$$V2.0) | < 1
CCCCCCCC(=O)N1CCC[C@H](C(=O)N[C@@H](Cc2ccccc2)C(=O)N[C@H](CCN(C)C)C(=O)N[C@@H](CC(C)C)C(=O)N2C[C@H](O)C[C@H]2C(=O)N(C)[C@@H](CC(C)C)C(=O)N[C@H](C(=O)N[C@@H](CCCNC(=N)N)C(=O)NC2CCCCCC2)C(C)C)C1 [JAL-1784, Occ-Sni-Phe-dab(Me2)-Leu-Hyp-Nml-Val-Arg-Che] (Octanoyl-[X2]F[X9]L[Hyp][NMeL]VR-NHcycloheptyl) | < 1
CCCCCCCCCC(=O)N1CCC[C@H](C(=O)N[C@@H](Cc2ccccc2)C(=O)N[C@H](CC(C)C)C(=O)N[C@@H](CC(C)C)C(=O)N2C[C@H](O)C[C@H]2C(=O)N(C)[C@@H](CC(C)C)C(=O)N[C@@H](CC(=O)O)C(=O)N[C@@H](CCCNC(=N)N)C(=O)N[C@H](C(N)=O)[C@@H](C)CC)C1 [JAL-1666, 5587-Sni-Phe-leu-Leu-Hyp-Nml-Asp-Arg-Ile-NH2] (HELM PEPTIDE1{[CCCCCCCCCC(=O)[*:2]].[O=C([C@H]1CCCN([*:1])C1)[*:2]].F.[dL].L.[Hyp].[meL].D.R.I.[am]}$$$$V2.0) | < 1
CCCCCCCC(=O)N1CCC[C@H](C(=O)N[C@@H](Cc2ccccc2)C(=O)NC(CCN2CCCC2)C(=O)N[C@@H](CC(C)C)C(=O)N2C[C@H](O)C[C@H]2C(=O)N(C)[C@@H](CC(C)C)C(=O)N[C@@H](CC(=O)O)C(=O)N[C@@H](CCCNC(=N)N)C(=O)N[C@H](C(N)=O)[C@@H](C)CC)C1 (stereo partly drawn) [JAL-1877, Occ-Sni-Phe-(AR-385-12)-Leu-Hyp-Nml-Asp-Arg-Ile-NH2] (Octanoyl-[X2]F[X11]L[Hyp][NMeL]DRI-NH2) | < 1
CCCCCCCC(=O)N[C@H](C)C(=O)N[C@@H](Cc1ccccc1)C(=O)N[C@H](CC(C)C)C(=O)N[C@@H](CC(C)C)C(=O)N1C[C@H](O)C[C@H]1C(=O)N(C)[C@@H](CC(C)C)C(=O)N[C@H](C(=O)N[C@@H](CCCNC(=N)N)C(=O)N[C@H](C(N)=O)[C@@H](C)CC)C1CCCC1 [JAL-1556, Occ-ala-Phe-leu-Leu-Hyp-Nml-(BB725)-Arg-Ile-NH2] (HELM PEPTIDE1{[CCCCCCCC(=O)[*:2]].[dA].F.[dL].L.[Hyp].[meL].[O=C([C@@H](N[*:1])C1CCCC1)[*:2]].R.I.[am]}$$$$V2.0) | < 1
CCCCCCCC(=O)N[C@H](C)C(=O)N[C@@H](Cc1ccccc1)C(=O)NC(C(=O)N[C@@H](CC(C)C)C(=O)N1C[C@H](O)C[C@H]1C(=O)N(C)[C@@H](CC(C)C)C(=O)N[C@@H](CC(=O)O)C(=O)N[C@@H](CCCNC(=N)N)C(=O)N[C@H](C(N)=O)[C@@H](C)CC)C1CCCNC1 (stereo partly drawn) [JAL-1336, Occ-ala-Phe-Fhy-Leu-Hyp-Nml-Asp-Arg-Ile-NH2] (HELM PEPTIDE1{[CCCCCCCC(=O)[*:2]].[dA].F.[O=C(C(N[*:1])C1CCCNC1)[*:2]].L.[Hyp].[meL].D.R.I.[am]}$$$$V2.0) | < 1
CCCCCCCC(=O)N1CCC[C@H](C(=O)N[C@@H](Cc2ccccc2)C(=O)N[C@H](CCN(C)C)C(=O)N[C@@H](CC(C)C)C(=O)N2C[C@H](O)C[C@H]2C(=O)N(C)[C@@H](CC(C)C)C(=O)N[C@@H](CC(=O)O)C(=O)N[C@@H](CCCNC(=N)N)C(=O)N[C@H](C(N)=O)[C@@H](C)CC)C1 [JAL-1785, Occ-Sni-Phe-dab(Me2)-Leu-Hyp-Nml-Asp-Arg-Ile-NH2] (Octanoyl-[X2]F[X9]L[Hyp][NMeL]DRI-NH2) | < 1
CCCCCCCC(=O)N1CCC[C@H](C(=O)N[C@@H](Cc2ccccc2)C(=O)N[C@H](CC(C)C)C(=O)N[C@@H](CC(C)C)C(=O)N2C[C@H](NCCN)C[C@H]2C(=O)N(C)[C@@H](CC(C)C)C(=O)N[C@@H](CC(=O)O)C(=O)N[C@@H](CCCNC(=N)N)C(=O)N[C@H](C(N)=O)[C@@H](C)CC)C1 [JAL-1371, Occ-Sni-Phe-leu-Leu-Tap(Ae)-Nml-Asp-Arg-Ile-NH2] (Octanoyl-[X2]F[dL]L[X3][NMeL]DRI-NH2) | < 1
CCCCCCCC(=O)N[C@H](C)C(=O)N[C@@H](Cc1ccccc1)C(=O)N[C@H](CC(C)C)C(=O)N[C@@H](CC(C)C)C(=O)N1C[C@H](O)C[C@H]1C(=O)N(C)[C@@H](CC(C)C)C(=O)N[C@H](C(=O)N[C@@H](CCCNC(=N)N)C(=O)N[C@H](C(N)=O)[C@@H](C)CC)C(C)C [JAL-1332, Occ-ala-Phe-leu-Leu-Hyp-Nml-Val-Arg-Ile-NH2] (HELM PEPTIDE1{[CCCCCCCC(=O)[*:2]].[dA].F.[dL].L.[Hyp].[meL].V.R.I.[am]}$$$$V2.0) | < 1
CCCCCCCC(=O)N1CCC[C@H](C(=O)N[C@@H](Cc2ccccc2)C(=O)N[C@H](CC(C)C)C(=O)N[C@@H](CC(C)C)C(=O)N2C[C@H](O)C[C@H]2C(=O)N[C@H](C(=O)N[C@@H](CC(=O)O)C(=O)N[C@@H](CCCNC(=N)N)C(=O)N[C@H](C(N)=O)[C@@H](C)CC)C2CCCC2)C1 [JAL-1626, Occ-Sni-Phe-leu-Leu-Hyp-Cpg-Asp-Arg-Ile-NH2] (Octanoyl-[X2]F[dL]L[Hyp][Gly(cPent)]DRI-NH2) | < 1
CCCCCCCC(=O)N[C@H](C)C(=O)N(C)[C@@H](Cc1ccccc1)C(=O)N[C@H](CC(C)C)C(=O)N[C@@H](CC(C)C)C(=O)N1C[C@H](O)C[C@H]1C(=O)N(C)[C@@H](CC(C)C)C(=O)N[C@@H](CC(=O)O)C(=O)N[C@@H](CCCNC(=N)N)C(=O)N[C@H](C(N)=O)[C@@H](C)CC [JAL-1267, Occ-ala-Nmf-leu-Leu-Hyp-Nml-Asp-Arg-Ile-NH2] (HELM PEPTIDE1{[CCCCCCCC(=O)[*:2]].[dA].[meF].[dL].L.[Hyp].[meL].D.R.I.[am]}$$$$V2.0) | < 1
CCCCCCCC(=O)N1CCC[C@H](C(=O)N[C@@H](Cc2ccccc2)C(=O)N[C@H](CC(C)C)C(=O)N[C@@H](CC(C)C)C(=O)N2C[C@H](O)C[C@H]2C(=O)N(C)[C@@H](CC(C)C)C(=O)N[C@H](C(=O)N[C@@H](CCCNC(=N)N)C(=O)N[C@H](C(N)=O)[C@@H](C)CC)C(C)C)C1 [JAL-1398, Occ-Sni-Phe-leu-Leu-Hyp-Nml-Val-Arg-Ile-NH2] (HELM PEPTIDE1{[CCCCCCCC(=O)[*:2]].[O=C([C@H]1CCCN([*:1])C1)[*:2]].F.[dL].L.[Hyp].[meL].V.R.I.[am]}$$$$V2.0) | < 1
CCCCCCCC(=O)N1CCC[C@H](C(=O)N[C@@H](Cc2ccccc2)C(=O)N[C@H](CC(C)C)C(=O)N[C@@H](CC(C)C)C(=O)N2C[C@H](N)C[C@H]2C(=O)N(C)[C@@H](CC(C)C)C(=O)N[C@@H](CC(=O)O)C(=O)N2CCC[C@H]2C(=O)N[C@H](C(N)=O)[C@@H](C)CC)C1 [JAL-1559, Occ-Sni-Phe-leu-Leu-Tap-Nml-Asp-Pro-Ile-NH2] (Octanoyl-[X2]F[dL]L[Pro(4R-NH2)][NMeL]DPI-NH2) | < 1

— patent US9822147B2, “Methods of treating ophthalmic diseases using NPR-B agonists” (priority 2009, dated 2017)
